The values that follow come from patent US5866346A (priority 1997, dated 1999).

Like-named read-outs stand apart in the source and are kept apart here.

Experiment [1] concerns the target kappa opioid receptor (KOR) (Rattus norvegicus, UniProt P34975). To be noted: cited from earlier work.
Experiment [2] addresses kappa opioid receptor (KOR) (Cavia porcellus, UniProt P41144). To be noted: read-out: KOR (Ki) Guinea pig (36); cited from earlier work.
For experiment [3], the target named is T1, XOR1 (rat opioid receptor-like novel receptor) (Rattus norvegicus, UniProt P35370).
T1 construct: expressed in transfected cells; host or cells: CHO-K1 and HEK-293 cells, transient calcium phosphate transfection
T1 sequence (P35370 whole entry): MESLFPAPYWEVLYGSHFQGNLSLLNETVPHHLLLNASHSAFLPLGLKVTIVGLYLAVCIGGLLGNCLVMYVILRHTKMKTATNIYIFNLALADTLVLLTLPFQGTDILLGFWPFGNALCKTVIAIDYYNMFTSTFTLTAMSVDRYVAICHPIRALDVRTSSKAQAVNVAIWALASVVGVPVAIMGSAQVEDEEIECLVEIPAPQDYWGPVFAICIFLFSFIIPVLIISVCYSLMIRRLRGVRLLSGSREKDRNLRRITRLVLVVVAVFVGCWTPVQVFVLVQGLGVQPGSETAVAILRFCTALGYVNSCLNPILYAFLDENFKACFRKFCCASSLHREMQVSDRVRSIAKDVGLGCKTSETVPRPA
Put plainly: Inhibition of forskolin-stimulated cyclic AMP increase in cells transiently transfected with XOR1. Format: cell-based. To be noted: 5 μM ligand, 10 μM forskolin. As for the experimental part: FIGS. 4A and 4B. Inhibition of forskolin-stimulated cyclic AMP increase by dyn A-(1-13). CHO-K1 or HEK-293 cells transiently transfected with the XOR1 clone were treated with 10 μM forskolin with or without 5 μM dyn A-(1-13). The control cells were transfected with the plasmid vector and underwent the same treatment. Intracellular cyclic AMP content was determined using a radioimmunoassay kit (DuPont/NEN). Data are shown as mean ± S.E. (n=2). * indicates a significant-difference from the forskolin-only treated cells (Student's t-test, p<0.01).
Cell transfection and cyclic AMP assay--The CHO-K1 and HEK-293 cells were transiently transfected with either XOR1 (rat opioid receptor-like novel receptor) cDNA in pRc/CMV (Invitrogen) or vector only (as control) by calcium phosphate method as described by Chen et al., Mol. Cell Biol. 7:2745-2752 (1987). Three days after transfection, cells were harvested by trypsin treatment, washed and resuspended in serum-free medium. Cells were treated with ligands in the presence of 10 μM forskolin and 1 mM 3-iosbutyl-1-methylxanthine at 37° C. for 20 min. The reaction was terminated by adding 1/3 volume of 0.25M HCl. The mixture was boiled for 5 min and centrifuged at 14,000 g for 10 min. […] The cAMP in cells was determined by the nonacetylated method using the radioimmunoassay kit (DuPont/NEN) according to the manufacturer's instructions.

kappa opioid receptor (KOR) (Rattus norvegicus, UniProt P34975), sequence (P34975 whole entry): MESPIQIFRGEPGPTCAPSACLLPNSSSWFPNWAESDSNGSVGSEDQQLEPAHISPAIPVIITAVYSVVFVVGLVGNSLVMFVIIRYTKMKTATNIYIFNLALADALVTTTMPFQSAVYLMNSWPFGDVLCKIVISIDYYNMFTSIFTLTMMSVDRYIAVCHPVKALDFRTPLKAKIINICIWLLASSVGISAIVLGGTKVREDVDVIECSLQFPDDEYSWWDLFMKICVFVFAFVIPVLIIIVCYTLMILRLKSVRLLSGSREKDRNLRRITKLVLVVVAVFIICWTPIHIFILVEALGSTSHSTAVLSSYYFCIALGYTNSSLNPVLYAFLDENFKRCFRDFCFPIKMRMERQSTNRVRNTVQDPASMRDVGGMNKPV
kappa opioid receptor (KOR) (Cavia porcellus, UniProt P41144), sequence (P41144 whole entry): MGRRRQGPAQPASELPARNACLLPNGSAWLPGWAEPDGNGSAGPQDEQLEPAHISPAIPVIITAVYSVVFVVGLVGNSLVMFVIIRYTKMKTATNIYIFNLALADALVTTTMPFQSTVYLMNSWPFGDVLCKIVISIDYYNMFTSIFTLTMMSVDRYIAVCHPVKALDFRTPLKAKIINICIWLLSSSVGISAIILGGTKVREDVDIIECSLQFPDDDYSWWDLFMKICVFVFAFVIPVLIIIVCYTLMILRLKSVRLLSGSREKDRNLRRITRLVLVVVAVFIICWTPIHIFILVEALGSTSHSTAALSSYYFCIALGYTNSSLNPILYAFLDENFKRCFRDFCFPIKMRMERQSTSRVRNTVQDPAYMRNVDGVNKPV

For `CC[C@H](C)[C@H](NC(=O)[C@H](CCCNC(=N)N)NC(=O)[C@H](CCCNC(=N)N)NC(=O)[C@H](CC(C)C)NC(=O)[C@H](Cc1ccccc1)NC(=O)CNC(=O)CNC(=O)[C@@H](N)Cc1ccc(O)cc1)C(=O)N[C@@H](CCCNC(=N)N)C(=O)N1CCC[C@H]1C(=O)N[C@@H](CCCCN)C(=O)N[C@@H](CC(C)C)C(=O)N[C@@H](CCCCN)C(=O)N[C@@H](Cc1c[nH]c2ccccc12)C(=O)N[C@@H](CC(=O)O)C(=O)N[C@@H](CC(N)=O)C(=O)N[C@@H](CCC(N)=O)C(=O)O` [dyn A, dynorphin A], the inhibition constant (Ki) was 0.15 nM in experiment [1] (read-out: KOR (Ki) Rat (27)), 0.05 nM in experiment [1] (read-out: KOR (Ki) Rat (33)), 0.11 nM in experiment [1] (read-out: KOR (Ki) Rat (34)) and 0.58 nM in experiment [2].

For the compound `CC[C@H](C)[C@H](NC(=O)[C@H](CCCNC(=N)N)NC(=O)[C@H](CCCNC(=N)N)NC(=O)[C@H](CC(C)C)NC(=O)[C@H](Cc1ccccc1)NC(=O)CNC(=O)CNC(=O)[C@@H](N)Cc1ccc(O)cc1)C(=O)N[C@@H](CCCNC(=N)N)C(=O)N1CCC[C@H]1C(=O)N[C@@H](CCCCN)C(=O)N[C@@H](CC(C)C)C(=O)N[C@@H](CCCCN)C(=O)O` [dyn A-(1-13), dynorphin A (1-13)], the results for the Ki in experiment [1] (read-out: KOR (Ki) Rat (34)) and in experiment [2] were 0.12 nM and 0.71 nM, respectively. Further, the “inhibition of forskolin-stimulated cAMP increase” value in experiment [3] (CHO-K1 cells) is 51%; in experiment [3] (HEK-293 cells), 35%.

What is called Ki is a measure of affinity in units of concentration, obtained from inhibition or displacement.
